Read-outs that look alike come from different tables or passages of the source.
Columns and labels:
[1] = target: hemagglutinin (BHA), fusion peptide exposure (Influenza A virus (A/X-31(H3N2)), UniProt P03438); assay type: biochemical, C22 / X31 influenza virus (H3N2)
low pH BHA = test: SPA POST control (nonspecific quenching); design: species or system C22 / X31 influenza virus (H3N2)
Experimental: The compounds being screened by SPA are present during scintillation counting. Some of the chemicals, particularly those that are highly colored, quench the detection of radioactivity. A control ("POST") distinguishes whether apparent inhibition arises from inhibition of the conformational change or from nonspecific effects. The test compound is added to a sample of BHA that had previously been acidified and reneutralized. The mixture is then precipitated as usual. Since the BHA treated in this manner is known to be in the low pH conformation, a reduction in measurable cpm compared to controls with ligand omitted proves the compound interferes with the detection system.
^3 H-Leu BHA was diluted to 10,000 cpm (counts per minute) per 200 μl in MSSH buffer (10 mM HEPES, 10 mM MES, 10 mM succinate, 0.10 M NaCl, pH 7.0) containing 0.1% NP40. Protein was incubated with the specified concentration of trial compound for 25 minutes at RT. The same volume of solvent used to dissolve the compound was added to control samples and the final concentration of DMSO in all solutions was 0.67% v/v. A predetermined amount of 1N HAc was added to bring the reactions to the appropriate pH (usually pH 5.0). Following a 5 minute (unless specified otherwise) incubation at RT, reactions were reneutralized with 1N NaOH. For POST controls, compounds were added to the appropriate concentration after reneutralization. 200 μL aliquots of the protein solution were added to scintillation vials containing 100 μl protein A-SPA beads (Amersham), 5% fetal bovine serum (FBS), and antibody. Vials were incubated overnight at RT with constant shaking. Each reaction used 10 μl of fusion peptide antiserum diluted 1:10 with 50% glycerol. Cpm were detected in a Beckman LS3801 scintillation counter without addition of liquid scintillant.
Apparent inhibition due to nonspecific effects was quantitated from the POST controls with the equation:
observed cpm=true cpm*quench factor

C22 virus in MDCK2 cells [2] = test: microbe, parasite or virus in culture; settings: unidentified influenza virus; for inhibition at 1 µM / inhibition at 10 µM / inhibition at 100 µM: MDCK2, 15 h, read-out: infectivity % inhibition
in vitro = settings: dog, mdck
Experimental: The ELISA-based assay described below (EIA antiviral assay) was used to measure antiviral activity. Cell viability was measured in parallel to distinguish inhibition of viral replication from toxicity.
Infections of MDCK2 cells with virus, compounds, and DMSO were set up identically as for the EIA assay. Following the 15 hour incubation, test compounds were washed away with PBS. 50 μl of MDCK2 growth media and 25 μl 2 mg/ml 3-(4,5-dimethylthiazol-2-yl)-2,5-diphenyl tetrazolium bromide (Sigma) in PBS were added to each well. Plates were returned to 37° C., 5% CO2 for 4 hrs. Crystals were broken up by vigorous mixing following addition of 80 μl isopropanol/0.04 N HCl. After incubation for 30 mins at RT, OD570 was read on an ELISA reader. % Inhibition is the % reduction of OD570 in the wells infected with compound compared to otherwise identical samples with compound omitted.

[3] = system: hemagglutinin-mediated hemolysis of human red blood cells; test: Hemolysis (HEM) assay; assay type: cell-based, C22 influenza virus; human red blood cells; settings: for inhibition at 100 µM / IC50 / inhibition at 1000 µM / inhibition at 10 µM / inhibition at 1 µM: unidentified influenza virus, Erythrocyte; for inhibition at 1000 µM: log conc -3 (M); for inhibition at 10 µM: log conc -5 (M); for inhibition at 1 µM: log conc -6 (M)
hemoglobin = test: Hb control (quenching of OD570 of hemoglobin); design: species or system human
C22 virus in MDCK2 cells [4] = system: C22 virus in MDCK2 cells
[5] = MDCK2, read-out: INF, negative log of IC50 (preliminary results) (converted)
[6] = Table 7, preliminary results, read-out: HEM, negative log of IC50 (preliminary results) (converted)
[7] = log conc -4 (M), read-out: hemolysis % ↓ OD
[8] = 0.25 h, Table 6, 10^-3 = 1 mM, low pH 15 minutes, read-out: IC50 hemolysis

hemagglutinin (BHA), fusion peptide exposure (Influenza A virus (A/X-31(H3N2)), UniProt P03438), sequence (P03438 whole entry, looked up, the tested form may be a part): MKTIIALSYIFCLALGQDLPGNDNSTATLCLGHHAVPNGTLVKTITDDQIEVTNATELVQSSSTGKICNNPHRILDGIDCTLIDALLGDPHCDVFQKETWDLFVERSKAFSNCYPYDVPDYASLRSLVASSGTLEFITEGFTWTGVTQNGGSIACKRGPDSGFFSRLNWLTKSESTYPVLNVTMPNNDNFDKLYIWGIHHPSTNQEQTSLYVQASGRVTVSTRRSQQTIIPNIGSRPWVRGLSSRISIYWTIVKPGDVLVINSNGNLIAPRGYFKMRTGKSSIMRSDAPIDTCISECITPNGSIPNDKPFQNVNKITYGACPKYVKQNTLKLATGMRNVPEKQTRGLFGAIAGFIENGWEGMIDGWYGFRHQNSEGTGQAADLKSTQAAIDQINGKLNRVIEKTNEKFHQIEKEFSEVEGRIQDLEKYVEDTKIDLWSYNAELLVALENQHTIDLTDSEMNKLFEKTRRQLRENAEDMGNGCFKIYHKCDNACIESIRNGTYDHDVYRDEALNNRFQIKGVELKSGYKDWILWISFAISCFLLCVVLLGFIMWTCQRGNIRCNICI

## Oc1cccc2cccnc12 [Compound 127, 8-hydroxyquinoline]
[1]
  activity note in Table 7: inactive
  inhibition in the SPA assay: showed no inhibition

## Oc1ccc(O)c2c1C1C=CC2C1 [Compound 83A, 5,8-dihydro-5,8-methano-1,4-naphthalenediol]
[1]
  SPA activity: significantly higher activity
Low pH BHA; log conc -3 (M)
  % inhibition, POST control: 0.5 ± 1.1%
Low pH BHA; log conc -4 (M)
  % inhibition, POST control: -0.9 ± 1.5%
Low pH BHA; log conc -5 (M)
  % inhibition, POST control: -0.5%
Low pH BHA; log conc -6 (M)
  % inhibition, POST control: 10.8%

## COC(=O)C1C2C=CC(C2)C1C(=O)OC (stereo not shown) [Compound 85, dimethylbicyclo[2.2.1]-5-heptene-2,3-dicarboxylate]
[1]; 1 μM-1 mM
  inhibition in the SPA assay: showed no inhibition

## O=C(O)C1C2C=CC(C2)C1C(=O)Nc1ccccc1 (stereo not shown) [Compound 98, 3-(N-phenylcarbamoyl)-5-norbornen-2-carboxylic acid]
[1]; 1 μM-1 mM
  inhibition in the SPA assay: showed no inhibition

## O=C(O)C1C=CCC2C(=O)C=CC(=O)C12 (stereo not shown) [Compound 91, 5,8-dioxo-1,4,4A,5,8,8A-hexahydro-1-naphthalene carboxylic acid]
C22 virus in MDCK2 cells [2]
  inhibition at 1 µM: -1.3 ± 4%
  inhibition at 10 µM: 6.5 ± 7%
  inhibition at 100 µM: 70.9 ± 39.8%
C22 virus in MDCK2 cells [2]; [5]
  IC50: 10 to 100 µM
In vitro
  cytotoxicity at 15 h, 1 µM: -0.06 ± 5.1%
  cytotoxicity at 15 h, 10 µM: -2 ± 9.4%
  cytotoxicity at 15 h, 100 µM: -4.3 ± 7%
[3]
  inhibition of hemolytic activity: apparently inhibited hemolytic activity
[3]; 0.1 mM, pH 5.0, FIG. 8, read-out: Maximum inhibition of hemolysis
  inhibition at 100 µM: 61%
[3]; [6]
  IC50: 100 to 1000 µM
[3]; read-out: hemolysis % ↓ OD
  inhibition at 1000 µM: 91 ± 14.6%
  inhibition at 10 µM: 13.2%
  inhibition at 1 µM: -5.1%
[3]; [7]
  inhibition at 100 µM: 60.5 ± 0.7%
hemoglobin; log conc -3 (M)
  Hb control % ↓ OD: 29.6 ± 2.5%
hemoglobin; log conc -4 (M)
  Hb control % ↓ OD: 26.8 ± 5.0%
hemoglobin; log conc -5 (M)
  Hb control % ↓ OD: 11%
hemoglobin; log conc -6 (M)
  Hb control % ↓ OD: 3%
Low pH BHA; log conc -3 (M)
  % inhibition, POST control: 54.5%

## Oc1ccc2ccccc2c1O [Compound 124, 1,2-dihydroxynaphthalene]
C22 virus in MDCK2 cells [4]; Table 6
  infectivity in Table 6: toxic
C22 virus in MDCK2 cells [4]; Table 7
  INF, words (Table 7): toxic
In vitro
  cytotoxicity at 15 h, 100 µM: 80.5%

## OC1CC2CC1C1C3C=CC(C3)C21 (stereo not shown) [Compound 96, 1,2,3,4,4A,5,8,8A-octahydro-1,4:5,8-dimethano-2-naphthol]
[1]; 1 μM-1 mM
  inhibition in the SPA assay: showed no inhibition

## O=c1[nH][nH]c(=O)c2ccccc12 [Compound 108, phthalhydrazide]
[1]; 1 μM-1 mM
  inhibition in the SPA assay: showed no inhibition
[1]; Table 7
  activity note in Table 7: inactive

## CC(=O)OC1CC2CC1C1C3C=CC(C3)C21 (stereo not shown) [Compound 88, 1,2,3,4,4A,5,8,8A-octahydro-1,4:5,8-dimethanonaphth-2-yl acetate]
[1]; 1 μM-1 mM
  inhibition in the SPA assay: showed no inhibition
[1]; Table 7
  activity note in Table 7: inactive

## COC(=O)C1C=CCC2C(=O)C=CC(=O)C12 (stereo not shown) [Compound 97, methyl 5,8-dioxo-1,4,4A,5,8,8A-hexahydro-1-naphthalenecarboxylate]
C22 virus in MDCK2 cells [2]
  inhibition at 1 µM: -4.7 ± 9.4%
  inhibition at 10 µM: 92.6 ± 12.7%
C22 virus in MDCK2 cells [2]; [5]
  IC50: 1 to 10 µM
In vitro
  cytotoxicity at 15 h, 1 µM: -3.1 ± 7.9%
  cytotoxicity at 15 h, 10 µM: 32.9 ± 30.9%
  cytotoxicity at 15 h, 100 µM: 95.9 ± 8%
[3]
  inhibition of hemolytic activity: apparently inhibited hemolytic activity
[3]; [6]
  IC50: 100 µM
[3]; read-out: hemolysis % ↓ OD
  inhibition at 1000 µM: 102 ± 5.8%
  inhibition at 10 µM: 23.7%
  inhibition at 1 µM: 6.6%
[3]; [7]
  inhibition at 100 µM: 94.6%
hemoglobin; log conc -3 (M)
  Hb control % ↓ OD: 55.0 ± 13.3%
hemoglobin; log conc -4 (M)
  Hb control % ↓ OD: 37.6 ± 4.9%
hemoglobin; log conc -5 (M)
  Hb control % ↓ OD: 31%
hemoglobin; log conc -6 (M)
  Hb control % ↓ OD: 13.0%

## O=C1C2C3C=CC(C3)C2C(=O)N1O (stereo not shown) [Compound 94, N-hydroxy-5-norbornene-2,3-dicarboximide]
[1]; 1 μM-1 mM
  inhibition in the SPA assay: showed no inhibition
[1]; Table 7
  activity note in Table 7: inactive

## CC1=CC(=O)c2ccccc2C1=O [Compound 118, 2-methyl-1,4-naphthoquinone]
[1]; 1 μM-1 mM
  inhibition in the SPA assay: showed no inhibition
[1]; Table 7
  activity note in Table 7: inactive

## Oc1cccc2c(O)cccc12 [Compound 126, 1,5-naphthalenediol]
C22 virus in MDCK2 cells [2]
  inhibition at 1 µM: 3.8 ± 5.5%
  inhibition at 10 µM: 7.4 ± 1.8%
  inhibition at 100 µM: 35.6 ± 0.6%
C22 virus in MDCK2 cells [2]; MDCK2, read-out: IC50 infectivity
  IC50: > 100 µM
C22 virus in MDCK2 cells [2]; MDCK2, read-out: INF, negative log of IC50 (converted)
  IC50: > 100 µM
In vitro
  cytotoxicity at 15 h, 1 µM: -6.9 ± 4%
  cytotoxicity at 15 h, 10 µM: -9.2 ± 0.6%
  cytotoxicity at 15 h, 100 µM: -7.6 ± 7.3%
[3]
  inhibition of hemolytic activity: apparently inhibited hemolytic activity
[3]; [8]
  IC50: 1000 µM
[3]; Table 7, read-out: HEM, negative log of IC50 (converted)
  IC50: 1000 µM
[3]; read-out: hemolysis % ↓ OD
  inhibition at 1000 µM: 101 ± 7.6%
hemoglobin; log conc -3 (M)
  Hb control % ↓ OD: 54.4 ± 3.7%

## CN1C(=O)C2C3C=CC(C3)C2C1=O (stereo not shown) [Compound 95, N-methyl-5-norbornene-2,3-dicarboximide]
[1]; 1 μM-1 mM
  inhibition in the SPA assay: showed no inhibition
[1]; Table 7
  activity note in Table 7: inactive

## COC(=O)C1C2C=CC(C2)C1C(=O)O (stereo not shown) [Compound 87, 5-norbornene-2,3-dicarboxylic acid monomethyl ester]
[1]; 1 μM-1 mM
  inhibition in the SPA assay: showed no inhibition

## CCOC(=O)c1c(C)cc(O)cc1O [Compound 122, ethyl 2,4-dihydroxy-6-methylbenzoate]
[1]; 1 μM-1 mM
  inhibition in the SPA assay: showed no inhibition
[1]; Table 7
  activity note in Table 7: inactive

## N#Cc1c(O)ccc(O)c1C#N [Compound 103, 2,3-dicyanohydroquinone]
[1]; 1 μM-1 mM
  inhibition in the SPA assay: showed no inhibition
[1]; Table 7
  activity note in Table 7: inactive

## Oc1cccc2ccccc12 [Compound 106, 1-naphthol]
[1]; 1 μM-1 mM
  inhibition in the SPA assay: showed no inhibition
[1]; Table 7
  activity note in Table 7: inactive

## ClC1(Cl)C2CC3C4C=CC(C4)C3C21 (stereo not shown) [Compound 92, 5,5-dichlorotetracyclo-[6.2.1.0,2,7.0.4.6] undec-9-ene]
[1]; 1 μM-1 mM
  inhibition in the SPA assay: showed no inhibition

## O=C1C=CC(=O)c2c(O)cccc21 [Compound 119, 5-hydroxy-1,4-naphthoquinone]
In vitro
  cytotoxicity at 15 h, 100 µM: 97.8%
[1]; 1 μM-1 mM
  inhibition in the SPA assay: showed no inhibition
[1]; Table 7
  activity note in Table 7: inactive

## Oc1ccc(O)cc1 [Compound 104, hydroquinone]
[1]
  activity note in Table 7: inactive
  inhibition in the SPA assay: showed no inhibition

## Cl.N=C(N)Sc1cc(O)ccc1O [Compound 112, 2-(2,5-dihydroxyphenyl)-2-thiopseudourea hydrochloride]
[1]
  % inhibition, sample: 40.1%

## O=C1C=C(Br)C(=O)c2ccccc21 [Compound 135, 2-bromo-1,4-naphthoquinone]
[3]
  inhibition of hemolytic activity: did not
[3]; [8]
  IC50: > 1000 µM
[3]; read-out: hemolysis % ↓ OD
  inhibition at 1000 µM: 80.3%
hemoglobin; log conc -3 (M)
  Hb control % ↓ OD: 75.2%

## O=C(O)[C@@H]1[C@H](C(=O)O)[C@@H]2C=C[C@H]1C2 [Compound 89, cis-5-norbornene-endo-2,3-dicarboxylic acid]
[1]; 1 μM-1 mM
  inhibition in the SPA assay: showed no inhibition
[1]; Table 7
  activity note in Table 7: inactive

## O=C(O)C1C2C=CC(O2)C1C(=O)O (stereo not shown) [Compound 86, 3,6-endoxo-1,2,3,6-tetrahydrophthalic acid]
[1]; 1 μM-1 mM
  inhibition in the SPA assay: showed no inhibition
[1]; Table 7
  activity note in Table 7: inactive

## OC1=CCC2C3C=CC(C3)C12 (stereo not shown) [Compound 109, hydroxydicyclopentadiene]
[1]; 1 μM-1 mM
  inhibition in the SPA assay: showed no inhibition
[1]; Table 7
  activity note in Table 7: inactive

## O=C1NC(=O)c2ccccc21 [Compound 100, phthalimide]
[1]; 1 μM-1 mM
  inhibition in the SPA assay: showed no inhibition
[1]; Table 7
  activity note in Table 7: inactive

Source: patent publication US6080791A, “Method of treating a viral condition by inhibiting membrane fusion” (priority 1992, dated 2000)
